# Read-outs that look alike come from different tables or passages of the source. Starred links: 1 amine or outer side, 2 acyl side, 3 side chain; linkers in the order of their positions; H or OH if unused. Positions of bridges follow the written chain, without caps; N, C: chain ends. Non-standard residues stand in square brackets, D forms with d. Residues, ends and D or L forms follow the SMILES beside them. ξ: configuration not given here. X2 = CCOc1ccc(-c2[nH]c3ccccc3c2C[C@H](N[*:1])C(=O)[*:2])cc1; Phe(3,4,5-F3) = N[C@@H](Cc1cc(F)c(F)c(F)c1)C(=O)O; Pro(trans-4-F) = O=C(O)[C@@H]1C[C@@H](F)CN1; Tyr(3-Br) = N[C@@H](Cc1ccc(O)c(Br)c1)C(=O)O; d(cisHyp) = O=C(O)[C@H]1C[C@@H](O)CN1; cisHyp = O=C(O)[C@@H]1C[C@H](O)CN1; Hyp = O=C(O)[C@@H]1C[C@@H](O)CN1; NMeF = CN[C@@H](Cc1ccccc1)C(=O)O; NMeE = CN[C@@H](CCC(=O)O)C(=O)O; NMeNle = CCCC[C@H](NC)C(=O)O; ξR = N=C(N)NCCCC(N)C(=O)O; NMeA = CN[C@@H](C)C(=O)O; Dab = NCC[C@H](N)C(=O)O; Sar = CNCC(=O)O
# Legend:
# Human PD-L1/PD-1 = biological target: T1, Human PD-L1/PD-1 (Homo sapiens, UniProt Q9NZQ7); assay: HTRF PD-1-Ig/PD-L1-His binding assay (human PD-L1)
# T1 construct: made in house; host or cells: HEK293T
# T1 sequence (Q9NZQ7 with tags, fused parts or gaps): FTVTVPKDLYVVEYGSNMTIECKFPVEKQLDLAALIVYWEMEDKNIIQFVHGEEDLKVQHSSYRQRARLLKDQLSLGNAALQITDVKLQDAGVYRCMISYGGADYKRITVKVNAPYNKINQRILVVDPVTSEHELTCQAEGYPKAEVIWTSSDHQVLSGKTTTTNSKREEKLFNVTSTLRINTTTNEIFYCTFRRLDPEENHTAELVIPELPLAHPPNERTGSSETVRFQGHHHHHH
# Outline: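 Readout: time-resolved FRET between Eu cryptate-labeled anti-Ig (1 nM final) and APC-labeled anti-His (20 nM final) antibodies. These detect interaction of Fc-fused PD-1 with His-tagged human PD-L1 in dPBS containing 0.1% BSA and 0.05% Tween-20.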
# [1] = biological target: T2, LK35.2-hPD-L1 cells / PE-labeled PD-1-Ig (Homo sapiens, UniProt Q9NZQ7); assay: LK35.2-hPD-L1 cell binding high-content screening assay; format: cell-based
# T2 construct: expressed in transfected cells; host or cells: LK35.2 mouse B cell line
# T2 sequence (Q9NZQ7 19-290): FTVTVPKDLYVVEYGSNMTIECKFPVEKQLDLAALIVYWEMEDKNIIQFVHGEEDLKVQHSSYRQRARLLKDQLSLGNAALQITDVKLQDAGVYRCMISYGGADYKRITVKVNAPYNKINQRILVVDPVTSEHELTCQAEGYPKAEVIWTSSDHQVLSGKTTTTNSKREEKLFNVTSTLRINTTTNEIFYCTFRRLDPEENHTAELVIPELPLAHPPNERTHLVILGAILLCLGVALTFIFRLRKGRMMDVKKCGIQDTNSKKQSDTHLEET
# Outline: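 Fluorescent PD-1-Ig binding to PD-L1-expressing LK35.2 cells, imaged after washing. Conditions: 1 nM PE-PD-1-Ig, 37 °C, 1 h, RPMI with 10% fetal calf serum.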
# [2] = cluster symbol, read-out: HTRF IC50 cluster
# [3] = cell binding assay, cell line not given, cluster symbol, read-out: CBA IC50 cluster
# [4] = cluster symbol, cell line of CBA not given (LK35.2-hPD-L1 or 293T-hPD-L1), read-out: CBA IC50 cluster
IC50 (Human PD-L1/PD-1; [2]),"IC50 [1, 3]","IC50 [1, 4]","IC50 (Human PD-L1/PD-1; value given instead of cluster, read-out: HTRF IC50 value)","IC50 ([1]; cell binding assay, cell line not given, value given instead of cluster, read-out: CBA IC50 value)",SMILES
6.76 to 30.3 nM,4.78 to 72.9 nM,–,–,–,CCCC[C@H]1C(=O)N(C)[C@@H](CCCC)C(=O)N[C@@H](CCCNC(=N)N)C(=O)N[C@H](C(=O)NCC(N)=O)CSCC(=O)N[C@@H](Cc2ccccc2)C(=O)N(C)[C@@H](C)C(=O)N[C@@H](CC(N)=O)C(=O)N2CCC[C@H]2C(=O)N[C@@H](Cc2cnc[nH]2)C(=O)N[C@@H](CC(C)C)C(=O)N2C[C@H](F)C[C@H]2C(=O)N[C@@H](Cc2c[nH]c3ccccc23)C(=O)N[C@@H](CO)C(=O)N[C@@H](Cc2c[nH]c3ccccc23)C(=O)N1C [Example 5033] ({CH2CO}-F[NMeA]NPHL[Pro(trans-4-F)]WSW[NMeNle][NMeNle]RCG-NH2; thioether N-14)
> 30.5 nM,–,> 74.3 nM,–,–,"CCCC[C@H]1C(=O)N(C)CC(=O)N[C@@H](CC(=O)O)C(=O)N[C@@H](C(C)C)C(=O)N(C)[C@@H](Cc2ccccc2)C(=O)N[C@@H](Cc2ccc(O)cc2)C(=O)N(C)CC(=O)N[C@@H](Cc2c[nH]c3ccccc23)C(=O)N[C@H](C(=O)NCC(N)=O)CSCC(=O)N[C@@H](Cc2ccccc2)C(=O)N(C)[C@@H](Cc2ccccc2)C(=O)N1C [Example 3055] (HELM PEPTIDE1{[O=C(C[*:3])[*:2]].F.[meF].[CCCC[C@@H](C(=O)[*:2])N(C)[*:1]].[Sar].D.V.[meF].Y.[Sar].W.C.G.[am]}$PEPTIDE1,PEPTIDE1,1:R3-12:R3$$$V2.0)"
–,–,–,90.1 nM,625 nM,CCCC[C@H]1C(=O)N2CCC[C@@H]2C(=O)N[C@@H](CCN)C(=O)N[C@H](C(=O)NCC(N)=O)CSCC(=O)N[C@@H](Cc2ccc(O)c(Br)c2)C(=O)N(C)[C@@H](C)C(=O)N[C@@H](CC(N)=O)C(=O)N2CCC[C@H]2C(=O)N[C@@H](Cc2cnc[nH]2)C(=O)N[C@@H](CC(C)C)C(=O)N(C)CC(=O)N[C@@H](Cc2c[nH]c3ccccc23)C(=O)N[C@@H](CCN)C(=O)N[C@@H](Cc2c[nH]c3ccccc23)C(=O)N1C [Example 6045] ({CH2CO}-[Tyr(3-Br)][NMeA]NPHL[Sar]W[Dab]W[NMeNle][dP][Dab]CG-NH2; thioether N-14)
0.385 to 6.74 nM,–,0.158 to 4.71 nM,–,–,"CCCC[C@H]1C(=O)N2C[C@H](O)C[C@@H]2C(=O)N[C@@H](CC(=O)O)C(=O)N[C@@H](C(C)C)C(=O)N(C)[C@@H](Cc2ccccc2)C(=O)N[C@@H](Cc2ccc(O)cc2)C(=O)N(C)[C@@H](CCC(=O)O)C(=O)N[C@@H](Cc2c[nH]c3ccccc23)C(=O)N[C@@H](Cc2ccc(O)cc2)C(=O)N[C@@H](CC(C)C)C(=O)N[C@H](C(=O)NCC(N)=O)CSCC(=O)N[C@@H](Cc2cc(F)c(F)c(F)c2)C(=O)N(C)[C@@H](Cc2ccccc2)C(=O)N1C [Example 3182] ({CH2CO}-[Phe(3,4,5-F3)][NMeF][NMeNle][d(cisHyp)]DV[NMeF]Y[NMeE]WYLCG-NH2; thioether N-13)"
6.76 to 30.3 nM,–,4.78 to 72.9 nM,–,–,CCCC[C@H]1C(=O)N(C)[C@@H](CCCC)C(=O)N[C@@H](CCCNC(=N)N)C(=O)N[C@H](C(=O)NCC(N)=O)CSCC(=O)N[C@@H](Cc2ccc(O)cc2)C(=O)N2CCC[C@H]2C(=O)N[C@@H](CC(N)=O)C(=O)N2CCC[C@H]2C(=O)N[C@@H](Cc2cnc[nH]2)C(=O)N[C@@H](CC(C)C)C(=O)N2C[C@@H](O)C[C@H]2C(=O)N[C@@H](Cc2c[nH]c3ccccc23)C(=O)N[C@@H](CO)C(=O)N[C@@H](Cc2c[nH]c3ccccc23)C(=O)N1C [Example 1148] ({CH2CO}-YPNPHL[cisHyp]WSW[NMeNle][NMeNle]RCG-NH2; thioether N-14)
0.385 to 6.74 nM,4.78 to 72.9 nM,–,–,–,CCCC[C@H]1C(=O)N(C)[C@@H](CCCC)C(=O)NC(CCCNC(=N)N)C(=O)N[C@H](C(=O)NCC(N)=O)CSCC(=O)N[C@@H](Cc2ccc(O)cc2)C(=O)N(C)[C@@H](C)C(=O)N[C@@H](CC(N)=O)C(=O)N2CCC[C@H]2C(=O)N[C@@H](CCN)C(=O)N[C@@H](CC(C)C)C(=O)N2C[C@H](O)C[C@H]2C(=O)N[C@@H](Cc2c[nH]c3ccccc23)C(=O)N[C@@H](CO)C(=O)N[C@@H](Cc2c(-c3ccc(OCC)cc3)[nH]c3ccccc23)C(=O)N1C (some centres unmarked) [Example 7010] ({CH2CO}-Y[NMeA]NP[Dab]L[Hyp]WS[X2][NMeNle][NMeNle][ξR]CG-NH2; thioether N-14)
0.385 to 6.74 nM,0.158 to 4.71 nM,–,–,–,CCCC[C@H]1C(=O)N(C)[C@@H](CCCC)C(=O)N[C@@H](CCN)C(=O)N[C@H](C(=O)NCC(N)=O)CSCC(=O)N[C@@H](Cc2ccc(O)cc2)C(=O)N(C)[C@@H](C)C(=O)N[C@@H](CC(N)=O)C(=O)N2CCC[C@H]2C(=O)N[C@@H](Cc2c[nH]cn2)C(=O)N[C@@H](CCC(=O)O)C(=O)N2C[C@H](F)C[C@H]2C(=O)N[C@@H](Cc2c[nH]c3ccccc23)C(=O)N[C@@H](CCN)C(=O)N[C@@H](Cc2c[nH]c3ccccc23)C(=O)N1C [Example 13001] ({CH2CO}-Y[NMeA]NPHE[Pro(trans-4-F)]W[Dab]W[NMeNle][NMeNle][Dab]CG-NH2; thioether N-14)

# Reference: patent publication US9850283B2, “Macrocyclic inhibitors of the PD-1/PD-L1 and CD80(B7-1)/PD-L1 protein/protein interactions” (BRISTOL-MYERS SQUIBB COMPANY, priority 2013, dated 2017)
